Source: ChEMBL document CHEMBL3813649, “The influence of halogen substituents on the biological properties of sulfur-containing flavonoids” (2016)
Converted amounts (≈) assume the structure as drawn.

Experiments:
Assay type in all cases: functional
[1] = test system: Staphylococcus aureus; assay: Antibacterial activity against Staphylococcus aureus ATCC 25923 after 18 hrs by microbroth dilution assay
[2] = test system: Escherichia coli; assay: Antibacterial activity against Escherichia coli ATCC 25922 after 18 hrs by microbroth dilution assay
[3] = test system: Staphylococcus aureus; assay: Bactericidal activity against Staphylococcus aureus ATCC 25923 after 18 hrs by microbroth dilution assay; settings: ATCC 25923, 18 h
[4] = test system: Escherichia coli; assay: Bactericidal activity against Escherichia coli ATCC 25922 after 18 hrs by microbroth dilution assay; settings: ATCC 25922, 18 h
[5] = Staphylococcus aureus, ATCC 25923, 18 h, read-out: MIC
[6] = Escherichia coli, ATCC 25922, 18 h, read-out: MIC

Work on `CCN(CC)[c+]1sc2c(s1)C(c1ccc(I)cc1)Oc1ccccc1-2.F[B-](F)(F)F` (stereo not drawn) yielded an MIC [1, 5] of 0.97 µg/mL, an MIC [2, 6] of 31.2 µg/mL and an MBC [3] of 1.95 µg/mL. It also gave an MBC [4] of 62.5 µg/mL.

Compound `NC[C@H]1O[C@H](O[C@H]2[C@H](O)[C@@H](O[C@H]3O[C@H](CO)[C@@H](O)[C@H](N)[C@H]3O)[C@H](N)C[C@@H]2N)[C@H](O)[C@@H](O)[C@@H]1O` [KANAMYCIN] has an MIC [1, 5] of 1.95 µg/mL (≈ 4.02 µM), an MIC [2, 6] of 7.81 µg/mL (≈ 16.1 µM) and an MBC [3] of 1.95 µg/mL (≈ 4.02 µM). For the same compound, the MBC [4] was 7.81 µg/mL (≈ 16.1 µM).

For `CCN(CC)[c+]1sc2c(s1)C(c1ccc(F)cc1)Oc1ccc(Cl)cc1-2.F[B-](F)(F)F` (stereo not drawn), the MIC [1, 5] was 1.95 µg/mL, the MIC [2, 6] was 15.6 µg/mL and the MBC [3] was 3.9 µg/mL. It also gave an MBC [4] of 15.6 µg/mL.

`CCN(CC)[c+]1sc2c(s1)C(c1ccc(F)cc1)Oc1ccc(F)cc1-2.F[B-](F)(F)F` (stereo not drawn) showed an MIC [1, 5] of 7.81 µg/mL, an MIC [2, 6] of 15.6 µg/mL and an MBC [3] of 3.9 µg/mL. The MBC [4] was 125 µg/mL.

Compound `CCN(CC)[c+]1sc2c(s1)C(c1ccc(F)cc1)Oc1ccccc1-2.F[B-](F)(F)F` (stereo not drawn) has an MIC [1, 5] of 7.81 µg/mL, an MIC [2, 6] of 125 µg/mL and an MBC [3] of 7.81 µg/mL. It also gave an MBC [4] of 125 µg/mL.

With `C[S+](C)[O-]` [DIMETHYL SULFOXIDE] the MIC [1] was 250 uL/ml and the MIC [2] was 125 uL/ml.

With `CCN(CC)[c+]1sc2c(s1)C(c1ccc(Br)cc1)Oc1ccc(F)cc1-2.F[B-](F)(F)F` (stereo not drawn) the MIC [1, 5] was 1.95 µg/mL, the MIC [2, 6] was 7.81 µg/mL and the MBC [3] was 7.81 µg/mL. For the same compound, the MBC [4] was 15.6 µg/mL.

With `CCN(CC)[c+]1sc2c(s1)C(c1ccc(Br)cc1)Oc1ccccc1-2.F[B-](F)(F)F` (stereo not drawn) the MIC [1, 5] was 1.95 µg/mL, the MIC [2, 6] was 62.5 µg/mL and the MBC [3] was 1.95 µg/mL. The MBC [4] was 125 µg/mL.

`CCN(CC)[c+]1sc2c(s1)C(c1ccc(Cl)cc1)Oc1ccc(Cl)cc1-2.F[B-](F)(F)F` (stereo not drawn) gave an MIC [1, 5] of 0.24 µg/mL, an MIC [2, 6] of 3.9 µg/mL and an MBC [3] of 0.48 µg/mL. It also gave an MBC [4] of 3.9 µg/mL.

`CC1(C)S[C@@H]2[C@H](NC(=O)[C@H](N)c3ccccc3)C(=O)N2[C@H]1C(=O)O` [AMPICILLIN] showed an MIC [1, 5] of 7.81 µg/mL (≈ 22.4 µM) and an MIC [2, 6] of 7.81 µg/mL (≈ 22.4 µM).

Compound `CCN(CC)[c+]1sc2c(s1)C(c1ccccc1)Oc1ccc(F)cc1-2.F[B-](F)(F)F` (stereo not drawn) has an MIC [1, 5] of 7.81 µg/mL, an MIC [2, 6] of 62.5 µg/mL and an MBC [3] of 15.6 µg/mL. It also gave an MBC [4] of 125 µg/mL.

`CCN(CC)[c+]1sc2c(s1)C(c1ccc(I)cc1)Oc1ccc(F)cc1-2.F[B-](F)(F)F` (stereo not drawn) gave an MIC [1, 5] of 1.95 µg/mL, an MIC [2, 6] of 3.9 µg/mL and an MBC [3] of 0.97 µg/mL. It also gave an MBC [4] of 7.81 µg/mL.

Compound `CCN(CC)[c+]1sc2c(s1)C(c1ccc(Br)cc1)Oc1ccc(Cl)cc1-2.F[B-](F)(F)F` (stereo not drawn) has an MIC [1, 5] of 0.24 µg/mL, an MIC [2, 6] of 3.9 µg/mL and an MBC [3] of 3.9 µg/mL. It also gave an MBC [4] of 1.95 µg/mL.

`CCN(CC)[c+]1sc2c(s1)C(c1ccc(Cl)cc1)Oc1ccccc1-2.F[B-](F)(F)F` (stereo not drawn) showed an MIC [1, 5] of 3.9 µg/mL, an MIC [2, 6] of 125 µg/mL and an MBC [3] of 7.81 µg/mL. For the same compound, the MBC [4] was 125 µg/mL.

`CCN(CC)[c+]1sc2c(s1)C(c1ccccc1)Oc1ccccc1-2.F[B-](F)(F)F` (stereo not drawn) showed an MIC [1, 5] of 62.5 µg/mL, an MIC [2, 6] of 62.5 µg/mL and an MBC [3] of 250 µg/mL. The MBC [4] was 250 µg/mL.

`CCN(CC)[c+]1sc2c(s1)C(c1ccc(I)cc1)Oc1ccc(Cl)cc1-2.F[B-](F)(F)F` (stereo not drawn) was tested, and the MIC [1, 5] was 0.24 µg/mL, the MIC [2, 6] was 1.95 µg/mL and the MBC [3] was 0.48 µg/mL. It also gave an MBC [4] of 0.97 µg/mL.

`CCN(CC)[c+]1sc2c(s1)C(c1ccc(Cl)cc1)Oc1ccc(F)cc1-2.F[B-](F)(F)F` (stereo not drawn) gave an MIC [1, 5] of 3.9 µg/mL, an MIC [2, 6] of 15.6 µg/mL and an MBC [3] of 7.81 µg/mL. For the same compound, the MBC [4] was 15.6 µg/mL.

Compound `CCN(CC)[c+]1sc2c(s1)C(c1ccccc1)Oc1ccc(Cl)cc1-2.F[B-](F)(F)F` (stereo not drawn) has an MIC [1, 5] of 3.9 µg/mL, an MIC [2, 6] of 62.5 µg/mL and an MBC [3] of 3.9 µg/mL. It also gave an MBC [4] of 125 µg/mL.
